Values quoted from earlier work, collected in patent US8785634B2, “Spiropiperidine prolylcarboxypeptidase inhibitors” (Merck Sharp & Dohme Corp, priority 2010, dated 2014).

Experiments:
[1] = in vivo
[2] = test system: obese, leptin deficient mice; conditions: systemic administration
rats = conditions: intracerebroventricular

Molecule | weight loss, of body weight, drug compared to placebo [1] | overnight food intake [2] | overnight food intake (rats)
CC(C)CC(N(C)C)C1(c2ccc(Cl)cc2)CCC1 (stereo not drawn) [sibutramine] | 5%-10% |  | 
CCCCCCCCCCC[C@@H](C[C@@H]1OC(=O)[C@H]1CCCCCC)OC(=O)[C@H](CC(C)C)NC=O [orlistat] | 5%-10% |  | 
CCN[C@@H](C)Cc1cccc(C(F)(F)F)c1 [dexfenfluramine] | 5%-10% |  | 
CC(C)(N)Cc1ccccc1 [phentermine] | 5%-10% |  | 
t-butyl carbamate-prolyl prolinal [BPP] |  | suppression of overnight food intake | suppression of overnight food intake
